# Assay results as given in article PMC6003702 (Biopolymers, 2017).
# Where two headings read alike, the source gives them in different places. Where a SMILES comes first, the peptide text is derived from it.
# Experiments:
# cloned rat KOR = cloned rat KOR (Rattus norvegicus, UniProt P34975); experiment: Radioligand binding assay, KOR; settings: SEM
# cloned rat MOR = cloned rat MOR (Rattus norvegicus, UniProt P33535); experiment: Radioligand binding assay, MOR; settings: SEM
# mouse DOR = mouse DOR (Mus musculus, UniProt P32300); experiment: Radioligand binding assay, DOR
# cloned KOR = cloned KOR (Rattus norvegicus, UniProt P34975); experiment: [35S]GTPγS assay at KOR; format: biochemical; settings: SEM
# cloned KOR, sequence (P34975 whole entry): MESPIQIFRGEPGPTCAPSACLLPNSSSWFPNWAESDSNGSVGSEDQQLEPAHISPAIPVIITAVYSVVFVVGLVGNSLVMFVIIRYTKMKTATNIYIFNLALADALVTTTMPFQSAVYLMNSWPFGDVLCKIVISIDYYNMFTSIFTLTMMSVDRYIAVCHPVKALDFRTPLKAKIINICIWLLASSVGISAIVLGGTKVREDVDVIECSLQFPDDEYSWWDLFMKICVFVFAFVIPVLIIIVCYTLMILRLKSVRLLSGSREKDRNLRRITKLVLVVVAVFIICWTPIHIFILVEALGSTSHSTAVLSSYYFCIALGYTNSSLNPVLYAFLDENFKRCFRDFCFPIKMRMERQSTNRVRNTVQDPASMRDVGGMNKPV
# cloned rat MOR, sequence (P33535 whole entry): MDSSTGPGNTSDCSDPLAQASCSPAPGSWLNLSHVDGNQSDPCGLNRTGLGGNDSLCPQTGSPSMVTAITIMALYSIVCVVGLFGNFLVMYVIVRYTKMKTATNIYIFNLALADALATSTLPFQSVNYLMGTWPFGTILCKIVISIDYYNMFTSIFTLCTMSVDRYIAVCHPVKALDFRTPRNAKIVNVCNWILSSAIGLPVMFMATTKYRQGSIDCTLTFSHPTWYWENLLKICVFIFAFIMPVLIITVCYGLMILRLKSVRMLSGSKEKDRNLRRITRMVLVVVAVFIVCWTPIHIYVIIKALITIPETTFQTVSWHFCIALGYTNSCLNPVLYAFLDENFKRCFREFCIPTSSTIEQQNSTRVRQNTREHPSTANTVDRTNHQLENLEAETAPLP
# mouse DOR, sequence (P32300 whole entry): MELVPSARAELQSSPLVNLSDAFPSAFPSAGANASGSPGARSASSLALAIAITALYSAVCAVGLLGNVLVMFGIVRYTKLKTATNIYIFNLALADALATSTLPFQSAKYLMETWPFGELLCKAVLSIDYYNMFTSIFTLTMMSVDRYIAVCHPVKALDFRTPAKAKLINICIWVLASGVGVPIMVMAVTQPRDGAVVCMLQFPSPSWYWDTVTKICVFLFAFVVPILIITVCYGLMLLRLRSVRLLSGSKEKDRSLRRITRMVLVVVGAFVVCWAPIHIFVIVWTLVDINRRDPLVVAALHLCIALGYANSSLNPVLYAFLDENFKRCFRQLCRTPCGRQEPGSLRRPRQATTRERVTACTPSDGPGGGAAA
# cloned rat KOR, sequence (P34975 whole entry): as the sequence (P34975 whole entry) above
Compound,Ki (cloned rat KOR) [nM],Ki (cloned rat MOR) [nM],Ki (mouse DOR) [nM],EC50 (cloned KOR) [nM],Ki (mouse DOR; SEM) [nM]
CC(C)C[C@H](NC(=O)[C@H](C)NC(=O)CNC(=O)CNC(=O)[C@@H](N)Cc1ccc(O)cc1)C(=O)N[C@@H](CCCNC(=N)N)C(=O)N[C@@H](CCCNC(=N)N)C(=O)N[C@@H](CCC(N)=O)C(=O)N[C@@H](Cc1ccccc1)C(=O)N[C@@H](CCCCN)C(=O)N[C@H](C(=O)N[C@H](C(=O)N[C@H](C(N)=O)[C@@H](C)O)C(C)C)C(C)C [Compound 2] (H-YGGALRRQFKVVT-NH2),1510 ± 221,1040 ± 100,> 10000,1180 ± 330,–
CC(C)C[C@H](NC(=O)[C@H](Cc1ccccc1)NC(=O)CNC(=O)CNC(=O)[C@H](C)N)C(=O)N[C@@H](CCCNC(=N)N)C(=O)N[C@@H](CCCNC(=N)N)C(=O)N[C@@H](CCC(N)=O)C(=O)N[C@@H](Cc1ccccc1)C(=O)N[C@@H](CCCCN)C(=O)N[C@H](C(=O)N[C@H](C(=O)N[C@H](C(N)=O)[C@@H](C)O)C(C)C)C(C)C [Compound 1] (H-AGGFLRRQFKVVT-NH2),886 ± 123,651 ± 70,> 10000,2650 ± 890,–
"CC(C)C[C@H](NC(=O)[C@H](Cc1ccccc1)NC(=O)CNC(=O)CNC(=O)[C@@H](N)Cc1ccc(O)cc1)C(=O)N[C@@H](CCCNC(=N)N)C(=O)N[C@@H](CCCNC(=N)N)C(=O)N[C@@H](CCC(N)=O)C(=O)N[C@@H](Cc1ccccc1)C(=O)N[C@@H](CCCCN)C(=O)N[C@H](C(=O)N[C@H](C(=O)N[C@H](C(N)=O)[C@@H](C)O)C(C)C)C(C)C [Dyn B amide, reference compound]",6.3 ± 1.68,8.05 ± 2.87,–,9.14 ± 1.96,43.2 ± 1.6
CC(C)C[C@H](NC(=O)[C@H](Cc1ccccc1)NC(=O)CNC(=O)CNC(=O)[C@@H](N)Cc1ccc(O)cc1)C(=O)N[C@@H](CCCNC(=N)N)C(=O)N[C@@H](CCCNC(=N)N)C(=O)N[C@@H](CCC(N)=O)C(=O)N[C@@H](Cc1ccccc1)C(=O)N[C@@H](C)C(=O)N[C@H](C(=O)N[C@H](C(=O)N[C@H](C(N)=O)[C@@H](C)O)C(C)C)C(C)C [Compound 8] (H-YGGFLRRQFAVVT-NH2),31.6 ± 6,40.5 ± 3.9,–,6.36 ± 1.7,119 ± 16
CC(C)C[C@H](NC(=O)[C@H](Cc1ccccc1)NC(=O)CNC(=O)CNC(=O)[C@@H](N)Cc1ccc(O)cc1)C(=O)N[C@@H](CCCNC(=N)N)C(=O)N[C@@H](CCCNC(=N)N)C(=O)N[C@@H](C)C(=O)N[C@@H](Cc1ccccc1)C(=O)N[C@@H](CCCCN)C(=O)N[C@H](C(=O)N[C@H](C(=O)N[C@H](C(N)=O)[C@@H](C)O)C(C)C)C(C)C [Compound 6] (H-YGGFLRRAFKVVT-NH2),13 ± 0.96,4.32 ± 0.1,–,20.2 ± 10.8,54 ± 6.9
CC(C)[C@H](NC(=O)[C@H](CCCCN)NC(=O)[C@H](Cc1ccccc1)NC(=O)[C@H](CCC(N)=O)NC(=O)[C@H](CCCNC(=N)N)NC(=O)[C@H](CCCNC(=N)N)NC(=O)[C@H](C)NC(=O)[C@H](Cc1ccccc1)NC(=O)CNC(=O)CNC(=O)[C@@H](N)Cc1ccc(O)cc1)C(=O)N[C@H](C(=O)N[C@H](C(N)=O)[C@@H](C)O)C(C)C [Compound 3] (H-YGGFARRQFKVVT-NH2),12.1 ± 5.2,20.3 ± 3.1,–,109 ± 34,265 ± 43
CC(C)C[C@H](NC(=O)[C@H](Cc1ccccc1)NC(=O)CNC(=O)CNC(=O)[C@@H](N)Cc1ccc(O)cc1)C(=O)N[C@@H](C)C(=O)N[C@@H](CCCNC(=N)N)C(=O)N[C@@H](CCC(N)=O)C(=O)N[C@@H](Cc1ccccc1)C(=O)N[C@@H](CCCCN)C(=O)N[C@H](C(=O)N[C@H](C(=O)N[C@H](C(N)=O)[C@@H](C)O)C(C)C)C(C)C [Compound 4] (H-YGGFLARQFKVVT-NH2),43.1 ± 2.8,14.1 ± 3,–,116 ± 21,25.7 ± 1.6
CC(C)C[C@H](NC(=O)[C@H](Cc1ccccc1)NC(=O)CNC(=O)CNC(=O)[C@@H](N)Cc1ccc(O)cc1)C(=O)N[C@@H](CCCNC(=N)N)C(=O)N[C@@H](CCCNC(=N)N)C(=O)N[C@@H](CCC(N)=O)C(=O)N[C@@H](Cc1ccccc1)C(=O)N[C@@H](CCCCN)C(=O)N[C@@H](C)C(=O)N[C@H](C(=O)N[C@H](C(N)=O)[C@@H](C)O)C(C)C [Compound 9] (H-YGGFLRRQFKAVT-NH2),12.4 ± 1.6,7.45 ± 2.69,–,8.79 ± 2.2,58.8 ± 3.4
CC(C)C[C@H](NC(=O)[C@H](Cc1ccccc1)NC(=O)CNC(=O)CNC(=O)[C@@H](N)Cc1ccc(O)cc1)C(=O)N[C@@H](CCCNC(=N)N)C(=O)N[C@@H](C)C(=O)N[C@@H](CCC(N)=O)C(=O)N[C@@H](Cc1ccccc1)C(=O)N[C@@H](CCCCN)C(=O)N[C@H](C(=O)N[C@H](C(=O)N[C@H](C(N)=O)[C@@H](C)O)C(C)C)C(C)C [Compound 5] (H-YGGFLRAQFKVVT-NH2),82.4 ± 9.3,16.7 ± 5.1,–,802 ± 290,67.5 ± 8.3
CC(C)C[C@H](NC(=O)[C@H](Cc1ccccc1)NC(=O)CNC(=O)CNC(=O)[C@@H](N)Cc1ccc(O)cc1)C(=O)N[C@@H](CCCNC(=N)N)C(=O)N[C@@H](CCCNC(=N)N)C(=O)N[C@@H](CCC(N)=O)C(=O)N[C@@H](C)C(=O)N[C@@H](CCCCN)C(=O)N[C@H](C(=O)N[C@H](C(=O)N[C@H](C(N)=O)[C@@H](C)O)C(C)C)C(C)C [Compound 7] (H-YGGFLRRQAKVVT-NH2),11.3 ± 1.7,3.76 ± 0.22,–,14.8 ± 2.6,42.1 ± 2.5
